# Laboratory results taken from patent US20240307299A1, “SELF-EMULSIFYING DRUG DELIVERY (SEDDS) FOR OPHTHALMIC DRUG DELIVERY” (priority 2015, published 2024).
# Read-outs that look alike come from different tables or passages of the source.
# Test system: New Zealand White female rabbits
# Assay type: in vivo
# Description: The ocular tolerability of the various pharmaceutical-grade excipients used in our formulations was evaluated in vivo using New Zealand White female rabbits. A total of ten test groups with three rabbits each were used to test the materials listed below in Table 16. Dosing in each group was done by instilling one drop of material at the lowest concentration into the left eye of the first rabbit. If not tolerated, dosing was stopped. If tolerated, one drop of the same concentration was instilled into the left eye of the second rabbit and then again for the third rabbit. If a concentration was tolerated by 3 rabbits, dosing continued in the same pattern with the next higher concentration, if applicable.
# Sample compositions, specifically, the vehicle used to dilute the materials tested, are listed in the next table (Table 17).
molecule,measurement,setting,value
CC(O)CO (centres unmarked) [Propylene Glycol],Concentration at which the not tolerated finding was seen,lowest concentration not tolerated,10%
same,Concentration not tolerated,"topical ocular, rabbits",10%
PEG 400,Concentration at which the not tolerated finding was seen,"rabbit, in vivo",20%
same,Maximum Tolerated Concentration,"rabbit, in vivo",10 % w/w
same,Reason Not Tolerated: Ocular discomfort (score),"rabbit, in vivo","+3, 1 Ocular discomfort seen at"
PEG (polyethylene glycol) 300 [PEG 300],Concentration at which the not tolerated finding was seen,"rabbit, in vivo",10%
polyoxyethylene sorbitan monooleate [PS80],Concentration at which the not tolerated finding was seen,"rabbit, in vivo",40%
same,Maximum Tolerated Concentration,"rabbit, in vivo",30 % w/w
